Data published in article PMC4580987, “Catalytic site inhibition of insulin-degrading enzyme by a small molecule induces glucose intolerance in mice” (Nature Communications, 2015).
“Also recorded” adds a separate entry of the source.

Legend:
[1] = target: T1, recombinant human ECE-1 (Homo sapiens, UniProt P42892); assay: Endothelin-converting enzyme inhibition (CEREP); type: biochemical; settings: means of two experiments minimum, s.d.±10%; read-out: Selectivity IC50 hECE
T1 construct: host or cells: NSO cells
T1 sequence (P42892 1-770): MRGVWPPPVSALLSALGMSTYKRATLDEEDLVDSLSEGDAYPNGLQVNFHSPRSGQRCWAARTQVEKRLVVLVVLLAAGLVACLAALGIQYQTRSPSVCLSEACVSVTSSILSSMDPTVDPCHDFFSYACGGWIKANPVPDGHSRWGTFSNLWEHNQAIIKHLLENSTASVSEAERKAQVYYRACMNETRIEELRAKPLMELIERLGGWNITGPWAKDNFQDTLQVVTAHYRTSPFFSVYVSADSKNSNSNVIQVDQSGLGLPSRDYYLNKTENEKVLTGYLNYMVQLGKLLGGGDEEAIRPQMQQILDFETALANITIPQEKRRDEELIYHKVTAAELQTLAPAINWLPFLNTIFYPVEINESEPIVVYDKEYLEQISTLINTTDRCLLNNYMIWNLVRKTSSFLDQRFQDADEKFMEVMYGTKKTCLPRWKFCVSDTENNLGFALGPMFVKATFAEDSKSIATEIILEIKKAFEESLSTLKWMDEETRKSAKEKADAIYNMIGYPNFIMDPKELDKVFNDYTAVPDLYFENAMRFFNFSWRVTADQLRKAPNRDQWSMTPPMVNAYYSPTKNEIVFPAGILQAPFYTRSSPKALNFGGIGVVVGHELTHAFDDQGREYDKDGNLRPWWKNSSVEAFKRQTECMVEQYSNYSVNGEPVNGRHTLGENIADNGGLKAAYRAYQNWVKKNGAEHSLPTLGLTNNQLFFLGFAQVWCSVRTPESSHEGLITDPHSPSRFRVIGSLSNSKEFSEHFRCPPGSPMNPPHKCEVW

[2] = target: T2, hIDE (Homo sapiens, UniProt P14735); assay: In vitro hIDE inhibition of Aβ16–23-based substrate hydrolysis; type: biochemical
T2 construct: made in house
T2 sequence (P14735 1-1019): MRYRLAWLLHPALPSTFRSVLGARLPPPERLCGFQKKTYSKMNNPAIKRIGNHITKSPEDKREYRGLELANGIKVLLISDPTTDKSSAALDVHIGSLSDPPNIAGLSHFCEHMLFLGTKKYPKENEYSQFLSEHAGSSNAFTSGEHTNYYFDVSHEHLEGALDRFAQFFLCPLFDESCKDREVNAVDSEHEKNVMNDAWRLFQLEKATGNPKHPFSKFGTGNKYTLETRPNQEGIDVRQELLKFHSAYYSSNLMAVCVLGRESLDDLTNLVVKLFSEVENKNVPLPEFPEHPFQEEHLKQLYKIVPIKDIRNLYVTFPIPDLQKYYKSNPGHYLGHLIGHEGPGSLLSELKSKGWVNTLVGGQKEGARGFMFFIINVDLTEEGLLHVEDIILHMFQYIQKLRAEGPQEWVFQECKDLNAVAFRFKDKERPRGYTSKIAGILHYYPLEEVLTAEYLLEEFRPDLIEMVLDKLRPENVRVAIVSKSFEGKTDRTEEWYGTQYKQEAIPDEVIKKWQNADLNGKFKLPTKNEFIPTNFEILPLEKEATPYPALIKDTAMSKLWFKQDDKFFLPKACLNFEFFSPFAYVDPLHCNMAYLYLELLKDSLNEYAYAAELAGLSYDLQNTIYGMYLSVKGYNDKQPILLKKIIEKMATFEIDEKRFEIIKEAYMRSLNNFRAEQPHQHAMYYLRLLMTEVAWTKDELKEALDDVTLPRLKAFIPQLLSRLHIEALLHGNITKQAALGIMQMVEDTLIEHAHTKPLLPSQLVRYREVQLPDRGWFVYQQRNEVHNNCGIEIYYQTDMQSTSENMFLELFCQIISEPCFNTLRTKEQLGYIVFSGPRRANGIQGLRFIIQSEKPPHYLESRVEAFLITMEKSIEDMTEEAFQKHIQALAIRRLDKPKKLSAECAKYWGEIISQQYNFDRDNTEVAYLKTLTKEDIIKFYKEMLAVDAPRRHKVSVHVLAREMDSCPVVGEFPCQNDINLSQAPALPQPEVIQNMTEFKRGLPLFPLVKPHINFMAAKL
Procedure: In vitro IDE activity was measured with a quenched substrate […]. Human recombinant IDE was cloned and purified as previously described. […] All measurements were carried out as 8-point dose response curves and reported as the average of at least three independent measurements. […] Data analysis was performed using Xlfit v 5.0 and GraphPad Prism v 4.0. Nonlinear curve fitting and statistical analysis was done using built-in functions.

[3] = test system: insulin receptor, Akt and ERK phosphorylation; assay: Insulin signalling by western blotting in liver and muscle; type: in vivo, mouse; settings: 50 mg kg^−1 ip, after insulin injection
Procedure: Liver and muscle were homogenized in a lysis buffer (1% triton, 0.5 % deoxycholate, 10 mM Na pyruvate, 2 mM Na Vanadate, 100 mM NaF) supplemented with the proteases inhibiteurs cocktails) and the resulting homogenate clarified by centrifugation. Proteins expression and phosphorylation were evaluated by western blot analysis. The signals were detected with a Pierce ECL western blotting substrate (Thermo scientific), according the manufacturer instructions. Primary antibodies were diluted at 1/1,000 and incubated overnight in PBS 0.1% Tween 20, 5% milk.

[4] = test system: human SY5Y neuroblastoma cells; assay: Aβ1–40 secretion by differentiated SH-SY5Y cells (ELISA); type: cell-based; settings: 10 μM and 30 μM, 48 h
Procedure: The human neuroblastoma cell lines SH-SY5Y were provided from ATCC (cat. no. crl2266) with a Certificate of Analysis and not checked in the lab for mycoplasma contamination. […] SH-SY5Y were seeded in a 96-well plate at 200,000 cells per cm^2. […] Differentiated cells were then incubated with compounds at 10 μM and 30 μM in presence of 0.1% DMSO.

SMILES: O=C(C[C@@H](Cc1ccc2ccccc2c1)n1cc(CNC(=O)c2ccc(F)cc2)nn1)NO [Compound 1]
- IC50 [1]: 6.5 µM
- IC50 [2]: 0.3 µM
- insulin signalling: phosphorylation of insulin receptor, Akt and ERK in liver and muscle [3]: Increase insulin signaling; also recorded: increased the phosphorylation
- Aβ1–40 in culture supernatants [4]: significant elevations; also recorded: significantly increased; also recorded: dose-dependent increase
